# Source: PubChem BioAssay AID2060894 (Molecular Pharmacology Branch, DTP, NCI, 2025)
# Tested on: K12877-001-R-J1-PDC complex spheroid viability
# Experiment: Anticancer human tumor K12877-001-R-J1-PDC patient-derived lung adenocarcinoma cell line growth inhibition [RAS]
# Conditions: for IC50: curve of first compound; for viability, T/C: stronger effect = lower value
# Outline: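 Multi-cell-type spheroids: tumor cells plus HUVEC endothelial cells and mesenchymal stem cells. RAS-pathway inhibitors were combined with targeted agents, each dosed in half-log steps down from clinical Cmax, or from 10 microM when Cmax was unknown.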
# [1] = second compound 0.000949 µM, first compound 0.0316 µM
# [2] = second compound 0.000949 µM, first compound 0.1 µM
# [3] = second compound 0.000949 µM, first compound 0.316 µM
# [4] = second compound 0.000949 µM, first compound 1 µM
# [5] = second compound 0.000949 µM, first compound 3.16 µM
# [6] = second compound 0.000949 µM, first compound 10 µM
# [7] = second compound 0.003 µM, first compound 0.0316 µM
# [8] = second compound 0.003 µM, first compound 0.1 µM
# [9] = second compound 0.003 µM, first compound 0.316 µM
# [10] = second compound 0.003 µM, first compound 1 µM
# [11] = second compound 0.003 µM, first compound 3.16 µM
# [12] = second compound 0.003 µM, first compound 10 µM
# [13] = second compound 0.00949 µM, first compound 0.0316 µM
# [14] = second compound 0.00949 µM, first compound 0.1 µM
# [15] = second compound 0.00949 µM, first compound 0.316 µM
# [16] = second compound 0.00949 µM, first compound 1 µM
# [17] = second compound 0.00949 µM, first compound 3.16 µM
# [18] = second compound 0.00949 µM, first compound 10 µM
# [19] = second compound 0.03 µM, first compound 0.0316 µM
# [20] = second compound 0.03 µM, first compound 0.1 µM
# [21] = second compound 0.03 µM, first compound 0.316 µM
# [22] = second compound 0.03 µM, first compound 1 µM
# [23] = second compound 0.03 µM, first compound 3.16 µM
# [24] = second compound 0.03 µM, first compound 10 µM
# [25] = second compound 0.0949 µM, first compound 0.0316 µM
# [26] = second compound 0.0949 µM, first compound 0.1 µM
# [27] = second compound 0.0949 µM, first compound 0.316 µM
# [28] = second compound 0.0949 µM, first compound 1 µM
# [29] = second compound 0.0949 µM, first compound 3.16 µM
# [30] = second compound 0.0949 µM, first compound 10 µM
# [31] = second compound 0.3 µM, first compound 0.0316 µM
# [32] = second compound 0.3 µM, first compound 0.1 µM
# [33] = second compound 0.3 µM, first compound 0.316 µM
# [34] = second compound 0.3 µM, first compound 1 µM
# [35] = second compound 0.3 µM, first compound 3.16 µM
# [36] = second compound 0.3 µM, first compound 10 µM
# 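Also: spheroids exposed to agents for one week before readout.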
# 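For viability, T/C in this document: tumour cells co-cultured with HUVEC and mesenchymal stem cells in spheroids.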
smiles,measurement,setting,value
CC(C)NCC(C(=O)N1CCN(c2ncnc3c2C(C)CC3O)CC1)c1ccc(Cl)cc1 (stereo unspecified) + CCn1c(-c2cccnc2C(C)OC)c2c3cc(ccc31)N1CCOC(CC(NC(=O)C(C(C)C)N(C)C(=O)C3(F)CCN(C(=O)C#CC(C)(C)N(C)C)CC3)C(=O)N3CCCC(N3)C(=O)OCC(C)(C)C2)C1,IC50,second compound 0.000949 µM,1.26 µM
same,IC50,second compound 0.003 µM,1.28 µM
same,IC50,second compound 0.00949 µM,1.43 µM
same,IC50,second compound 0.03 µM,0.956 µM
same,IC50,second compound 0.0949 µM,0.488 µM
same,IC50,second compound 0.3 µM,0.17 µM
same,"viability, T/C",[1],88.5%
same,"viability, T/C",[2],76.6%
same,"viability, T/C",[3],80.5%
same,"viability, T/C",[4],55.5%
same,"viability, T/C",[5],26.7%
same,"viability, T/C",[6],18.3%
same,"viability, T/C",[7],80.6%
same,"viability, T/C",[8],88%
same,"viability, T/C",[9],67.1%
same,"viability, T/C",[10],60.6%
same,"viability, T/C",[11],26.5%
same,"viability, T/C",[12],19.6%
same,"viability, T/C",[13],78.5%
same,"viability, T/C",[14],68.5%
same,"viability, T/C",[15],82.8%
same,"viability, T/C",[16],58.7%
same,"viability, T/C",[17],27.9%
same,"viability, T/C",[18],16%
same,"viability, T/C",[19],75.7%
same,"viability, T/C",[20],68.9%
same,"viability, T/C",[21],81.6%
same,"viability, T/C",[22],49%
same,"viability, T/C",[23],26.8%
same,"viability, T/C",[24],15.9%
same,"viability, T/C",[25],72.7%
same,"viability, T/C",[26],73.5%
same,"viability, T/C",[27],51.8%
same,"viability, T/C",[28],41.5%
same,"viability, T/C",[29],23.1%
same,"viability, T/C",[30],12.1%
same,"viability, T/C",[31],57.8%
same,"viability, T/C",[32],52.8%
same,"viability, T/C",[33],46.3%
same,"viability, T/C",[34],23.5%
same,"viability, T/C",[35],19%
same,"viability, T/C",[36],10.6%
CC(C)n1nc(-c2ccc3oc(N)nc3c2)c2c(N)ncnc21 + CCn1c(-c2cccnc2C(C)OC)c2c3cc(ccc31)N1CCOC(CC(NC(=O)C(C(C)C)N(C)C(=O)C3(F)CCN(C(=O)C#CC(C)(C)N(C)C)CC3)C(=O)N3CCCC(N3)C(=O)OCC(C)(C)C2)C1,IC50,second compound 0.000949 µM,0.00924 µM
same,IC50,second compound 0.003 µM,0.00695 µM
same,IC50,second compound 0.00949 µM,0.0082 µM
same,IC50,second compound 0.03 µM,0.0063 µM
same,IC50,second compound 0.0949 µM,0.00356 µM
same,IC50,second compound 0.3 µM,0.00137 µM
same,"viability, T/C","second compound 0.000949 µM, first compound 0.000316 µM",81.6%
same,"viability, T/C","second compound 0.000949 µM, first compound 0.001 µM",81.3%
same,"viability, T/C","second compound 0.000949 µM, first compound 0.00316 µM",78.2%
same,"viability, T/C","second compound 0.000949 µM, first compound 0.01 µM",47.4%
same,"viability, T/C",[1],18.7%
same,"viability, T/C",[2],11.9%
same,"viability, T/C","second compound 0.003 µM, first compound 0.000316 µM",77.6%
same,"viability, T/C","second compound 0.003 µM, first compound 0.001 µM",80.9%
same,"viability, T/C","second compound 0.003 µM, first compound 0.00316 µM",66.2%
same,"viability, T/C","second compound 0.003 µM, first compound 0.01 µM",41.8%
same,"viability, T/C",[7],20.4%
same,"viability, T/C",[8],11%
same,"viability, T/C","second compound 0.00949 µM, first compound 0.000316 µM",77.5%
same,"viability, T/C","second compound 0.00949 µM, first compound 0.001 µM",76.9%
same,"viability, T/C","second compound 0.00949 µM, first compound 0.00316 µM",63.4%
same,"viability, T/C","second compound 0.00949 µM, first compound 0.01 µM",50%
same,"viability, T/C",[13],16.2%
same,"viability, T/C",[14],8.87%
same,"viability, T/C","second compound 0.03 µM, first compound 0.000316 µM",69.3%
same,"viability, T/C","second compound 0.03 µM, first compound 0.001 µM",69.6%
same,"viability, T/C","second compound 0.03 µM, first compound 0.00316 µM",59.1%
same,"viability, T/C","second compound 0.03 µM, first compound 0.01 µM",44%
same,"viability, T/C",[19],18.4%
same,"viability, T/C",[20],7.89%
same,"viability, T/C","second compound 0.0949 µM, first compound 0.000316 µM",68.7%
same,"viability, T/C","second compound 0.0949 µM, first compound 0.001 µM",61.4%
same,"viability, T/C","second compound 0.0949 µM, first compound 0.00316 µM",50%
same,"viability, T/C","second compound 0.0949 µM, first compound 0.01 µM",37.8%
same,"viability, T/C",[25],12.2%
same,"viability, T/C",[26],7.05%
same,"viability, T/C","second compound 0.3 µM, first compound 0.000316 µM",65%
same,"viability, T/C","second compound 0.3 µM, first compound 0.001 µM",53.1%
same,"viability, T/C","second compound 0.3 µM, first compound 0.00316 µM",39.8%
same,"viability, T/C","second compound 0.3 µM, first compound 0.01 µM",28.8%
same,"viability, T/C",[31],12.6%
same,"viability, T/C",[32],6.48%
C[C@@H](NC(=O)c1ncnc(N)c1Cl)c1ncc(C(=O)Nc2cc(C(F)(F)F)c(Cl)cn2)s1 + CCn1c(-c2cccnc2C(C)OC)c2c3cc(ccc31)N1CCOC(CC(NC(=O)C(C(C)C)N(C)C(=O)C3(F)CCN(C(=O)C#CC(C)(C)N(C)C)CC3)C(=O)N3CCCC(N3)C(=O)OCC(C)(C)C2)C1,IC50,second compound 0.000949 µM,> 10 µM
same,IC50,second compound 0.003 µM,> 10 µM
same,IC50,second compound 0.00949 µM,> 10 µM
same,IC50,second compound 0.03 µM,> 10 µM
same,IC50,second compound 0.0949 µM,> 10 µM
same,IC50,second compound 0.3 µM,> 10 µM
same,"viability, T/C",[1],84.5%
same,"viability, T/C",[2],84.7%
same,"viability, T/C",[3],77.3%
same,"viability, T/C",[4],85.3%
same,"viability, T/C",[5],74.4%
same,"viability, T/C",[6],82.7%
same,"viability, T/C",[7],80.2%
same,"viability, T/C",[8],79.2%
same,"viability, T/C",[9],72.6%
same,"viability, T/C",[10],82%
same,"viability, T/C",[11],91.2%
same,"viability, T/C",[12],76.8%
same,"viability, T/C",[13],84.3%
same,"viability, T/C",[14],74.9%
same,"viability, T/C",[15],72%
same,"viability, T/C",[16],73.4%
same,"viability, T/C",[17],81.3%
same,"viability, T/C",[18],78.8%
same,"viability, T/C",[19],80.3%
same,"viability, T/C",[20],81.1%
same,"viability, T/C",[21],71.3%
same,"viability, T/C",[22],88.2%
same,"viability, T/C",[23],89.9%
same,"viability, T/C",[24],87.5%
same,"viability, T/C",[25],79.5%
same,"viability, T/C",[26],77.8%
same,"viability, T/C",[27],78.4%
same,"viability, T/C",[28],75.3%
same,"viability, T/C",[29],89.7%
same,"viability, T/C",[30],72%
same,"viability, T/C",[31],72%
same,"viability, T/C",[32],71.7%
same,"viability, T/C",[33],64.3%
same,"viability, T/C",[34],69.8%
same,"viability, T/C",[35],69.3%
same,"viability, T/C",[36],52.9%
